In patent publication US9139577B2, “Sulfoximine substituted quinazolines for pharmaceutical compositions” (Boehringer Ingelheim International GmbH, priority 2013, dated 2015):

target: MNK1 (Homo sapiens (Human), UniProt Q9BUB5); experiment: MNK1 in vitro kinase assay (Assay 3), Z'-LYTE; assay type: biochemical; details: compound concentration of 1 μM, read-out: MNK1 % INH
Source text: C. MNK1 In vitro Kinase Assay (Assay 3)
MNK1 Data can be obtained from the MNK1 Z′-LYTE® assay. The MNK1 Z′-LYTE® screening protocol and assay conditions are also described on www.invitrogen.com.
The assay is described as follows:
The Z′-LYTE® biochemical assay employs a fluorescence-based, coupled-enzyme format and is based on the differential sensitivity of phosphorylated and non-phosphorylated peptides to proteolytic cleavage. The peptide substrate is labeled with two fluorophores—one at each end—that make up a FRET pair.
In the primary reaction, the kinase transfers the gamma-phosphate of ATP to a single tyrosine, serine or threonine residue in a synthetic FRET-peptide. In the secondary reaction, a site-specific protease recognizes and cleaves non-phosphorylated FRET-peptides. Phosphorylation of FRET-peptides suppresses cleavage by the Development Reagent. Cleavage disrupts FRET between the donor (i.e., coumarin) and acceptor (i.e., fluorescein) fluorophores on the FRET-peptide, whereas uncleaved, phosphorylated FRET-peptides maintain FRET. A ratiometric method, which calculates the ratio (the Emission Ratio) of donor emission to acceptor emission after excitation of the donor fluorophore at 400 nm, is used to quantitate reaction progress, as shown in the equation below.
ASSAY SETUP: The inhibition of kinase activity of MNK1a was assessed using pre-activated GST-MNK1a. The 2×MKNK1 (MNK1) mixture is prepared in 50 mM HEPES pH 7.5, 0.01% BRIJ-35, 10 mM MgCl2, 4 mM MnCl2, 1 mM EGTA, 2 mM DTT.
The Test Compounds are screened in 1% DMSO (final) in the well.
All Peptide/Kinase Mixtures are diluted to a 2× working concentration in the MNK1 Kinase Buffer.
All ATP Solutions are diluted to a 4× working concentration in Kinase Buffer (50 mM HEPES pH 7.5, 0.01% BRIJ-35, 10 mM MgCl2, 1 mM EGTA).
Development Reagent Solution:
The Development Reagent is diluted in Development Buffer
1. 2.5 μL—4× Test Compound
2. 5 μL—2× Peptide/Kinase Mixture
5. 60-minute Kinase Reaction incubation at room temperature
6. 5 μl—Development Reagent Solution
8. 60-minute Development Reaction incubation at room temperature
9. Read on fluorescence plate reader and analyze the data
The following equations are used for each set of data points: […]
Correction for Background Fluorescence: FlSample-FlTCFl Ctl
% Phosphorylation (% Phos): 1−((Emission Ratio×F100%)−C100%)/((C0%−C100%)+[Emission Ratio×(F100%−F0%)])*100%
% Inhibition: 1−(% PhosSample/% Phos0% Inhibition Ctl)*100
Fl=Fluorescence Intensity
C100%=Average Coumarin emission signal of the 100% Phos. Control
C0%=Average Coumarin emission signal of the 0% Phos. Control
F100%=Average Fluorescein emission signal of the 100% Phos. Control
F0%=Average Fluorescein emission signal of the 0% Phos. Control
SelectScreen® Kinase Profiling Service uses XLfit from IDBS.

Chain of MNK1 (Q9BUB5 other isoform, or with tags, fused parts or gaps): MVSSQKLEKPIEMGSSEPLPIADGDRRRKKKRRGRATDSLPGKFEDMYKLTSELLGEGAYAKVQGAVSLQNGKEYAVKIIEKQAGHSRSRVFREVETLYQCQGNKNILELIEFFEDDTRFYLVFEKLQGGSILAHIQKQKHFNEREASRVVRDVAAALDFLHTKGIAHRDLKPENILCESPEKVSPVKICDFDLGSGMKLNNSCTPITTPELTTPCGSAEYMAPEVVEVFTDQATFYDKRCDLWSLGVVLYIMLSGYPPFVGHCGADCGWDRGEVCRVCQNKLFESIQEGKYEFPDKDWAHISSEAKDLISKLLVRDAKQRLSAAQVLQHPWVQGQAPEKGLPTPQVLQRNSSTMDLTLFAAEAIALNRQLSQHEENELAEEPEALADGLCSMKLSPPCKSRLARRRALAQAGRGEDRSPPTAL

With Cc1cc(N=S(C)(C)=O)cc2ncnc(Nc3ccc(F)cc3O[C@H](C)C(=O)N3CCC(O)C3)c12 (stereo partly drawn) [Example 4.005] as the molecule, how does the inhibition at 1 µM read?
Its inhibition at 1 µM is 74%.

How did the inhibition at 1 µM turn out when Cc1cc(N=S2(=O)CCCC2)cc2ncnc(Nc3ccc(F)cc3OC(C)C#N)c12 (stereo not drawn) [Example 7.008] was run?
Its inhibition at 1 µM is 99%.

How did the inhibition at 1 µM turn out when Cc1cc(N=S(C)(C)=O)cc2ncnc(Nc3ccc(F)cc3OC[C@H]3CNC(=O)O3)c12 [Example 3.003] was run?
The inhibition at 1 µM was 73%.

How did the inhibition at 1 µM turn out when Cc1cc(N=S(C)(C)=O)cc2ncnc(Nc3ccc(F)cc3O[C@H](C)CNS(C)(=O)=O)c12 [Example 5.003] was run?
The inhibition at 1 µM was 38%.

How did the inhibition at 1 µM turn out when Cc1cc(N=S(C)(C)=O)cc2ncnc(Nc3ccc(F)cc3O[C@H](C)C(=O)NC3CCOCC3)c12 [Example 4.019] was run?
The inhibition at 1 µM was 92%.

Which inhibition at 1 µM does the source give for Cc1cc(N=S(C)(C)=O)cc2ncnc(Nc3ccc(F)cc3O[C@H](C)C(=O)NCC3CCCO3)c12 (stereo partly drawn) [Example 4.011] here?
Its inhibition at 1 µM is 86%.

With Cc1cc([C@@H](C)Oc2cc(F)ccc2Nc2ncnc3cc(N=S4(=O)CCCC4)cc(C)c23)on1 [Example 2.012] as the molecule, how does the inhibition at 1 µM read?
Its inhibition at 1 µM is 102%.

How did the inhibition at 1 µM turn out when COCC(=O)N1CCS(=O)(=Nc2cc(C)c3c(Nc4ccc(F)cc4O[C@H](C)c4cc(C)no4)ncnc3c2)CC1 [Example 5.007] was run?
The inhibition at 1 µM was 97%.

Cc1cc(N=S2(=O)CCCC2)cc2ncnc(Nc3ccc(F)cc3O[C@H](C)C(=O)N(C)CC(C)C)c12 [Example 4.052] was tested. Which inhibition at 1 µM did it give?
The inhibition at 1 µM was 94%.

Which inhibition at 1 µM does the source give for Cc1cc(N=S(C)(C)=O)cc2ncnc(Nc3ccc(F)cc3O[C@H](C)C(=O)NC(C)C)c12 [Example 4.060] here?
Its inhibition at 1 µM is 99%.

With O=S1(=Nc2cc(C(F)(F)F)c3c(Nc4ccc(F)cc4OC(CF)CF)ncnc3c2)CCCC1 [Example 1.004] as the molecule, how does the inhibition at 1 µM read?
Its inhibition at 1 µM is 79%.

How did the inhibition at 1 µM turn out when C#CCNC(=O)[C@@H](C)Oc1cc(F)ccc1Nc1ncnc2cc(N=S(C)(C)=O)cc(C)c12 [Example 4.018] was run?
Its inhibition at 1 µM is 99%.

Cc1cc(N=S(C)(C)=O)cc2ncnc(Nc3ccc(F)cc3O[C@H](C)C(=O)NCCO)c12 [Example 4.029] was tested. Which inhibition at 1 µM did it give?
The inhibition at 1 µM was 99%.

How did the inhibition at 1 µM turn out when Cc1cc(N=S(C)(C)=O)cc2ncnc(Nc3ccc(F)cc3O[C@@H](C)CNS(C)(=O)=O)c12 [Example 5.001] was run?
The inhibition at 1 µM was 97%.

How did the inhibition at 1 µM turn out when CC#CCNC(=O)[C@@H](C)Oc1cc(F)ccc1Nc1ncnc2cc(N=S3(=O)CCCC3)cc(C)c12 [Example 4.044] was run?
The inhibition at 1 µM was 96%.

For Cc1cc(N=S(C)(C)=O)cc2ncnc(Nc3ccc(F)cc3O[C@H](C)C(=O)N(C)Cc3ccccc3)c12 [Example 4.012], which inhibition at 1 µM is on record?
Its inhibition at 1 µM is 56%.

For CCC(C)Oc1cc(F)ccc1Nc1ncnc2cc(N=S(C)(C)=O)cc(C)c12 (stereo not drawn) [Example 3.042], which inhibition at 1 µM is on record?
The inhibition at 1 µM was 78%.

Cc1cc(N=S(C)(C)=O)cc2ncnc(Nc3ccc(F)cc3OC[C@H]3CCC(=O)N3)c12 [Example 3.038] was tested. Which inhibition at 1 µM did it give?
Its inhibition at 1 µM is 86%.

How did the inhibition at 1 µM turn out when CCC(C)NC(=O)[C@@H](C)Oc1cc(F)ccc1Nc1ncnc2cc(N=S3(=O)CCCC3)cc(C)c12 (stereo partly drawn) [Example 4.050] was run?
Its inhibition at 1 µM is 100%.

Cc1cc(N=S2(=O)CCCC2)cc2ncnc(Nc3ccc(F)cc3O[C@H](C)C(=O)N(C)C)c12 [Example 4.051] was tested. Which inhibition at 1 µM did it give?
The inhibition at 1 µM was 82%.

C[C@@H](Oc1cc(F)ccc1Nc1ncnc2cc(N=S(C)(C)=O)cc(Cl)c12)C(F)(F)F [Example 1.003] was tested. Which inhibition at 1 µM did it give?
Its inhibition at 1 µM is 95%.

target: MNK2a (Homo sapiens (Human), UniProt Q9HBH9); experiment: MNK2a in vitro kinase assay (Assay 2), ADP-Glo; assay type: biochemical; details: read-out: MNK2 IC50
Sequence (Q9HBH9 whole entry): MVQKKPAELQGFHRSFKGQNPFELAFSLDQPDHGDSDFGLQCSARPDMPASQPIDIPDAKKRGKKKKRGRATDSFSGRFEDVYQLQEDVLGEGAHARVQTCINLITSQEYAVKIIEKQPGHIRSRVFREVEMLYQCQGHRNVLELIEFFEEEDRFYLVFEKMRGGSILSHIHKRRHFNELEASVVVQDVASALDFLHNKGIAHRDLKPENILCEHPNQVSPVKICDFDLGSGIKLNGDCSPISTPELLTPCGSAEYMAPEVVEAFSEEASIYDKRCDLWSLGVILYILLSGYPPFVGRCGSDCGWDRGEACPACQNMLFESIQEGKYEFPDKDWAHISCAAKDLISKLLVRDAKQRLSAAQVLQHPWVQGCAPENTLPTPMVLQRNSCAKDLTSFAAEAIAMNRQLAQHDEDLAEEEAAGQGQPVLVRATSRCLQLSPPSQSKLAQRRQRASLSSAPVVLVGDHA

How did the IC50 turn out when Cc1cc(N=S(C)(C)=O)cc2ncnc(Nc3ccc(F)cc3O[C@H](C)C(=O)N3CCC(O)C3)c12 (stereo partly drawn) [Example 4.005] was run?
The IC50 was 28 nM.

Which IC50 does the source give for Cc1cc(N=S2(=O)CCCC2)cc2ncnc(Nc3ccc(F)cc3OC(C)C#N)c12 (stereo not drawn) [Example 7.008] here?
Its IC50 is 3 nM.

For Cc1cc(N=S(C)(C)=O)cc2ncnc(Nc3ccc(F)cc3OC[C@H]3CNC(=O)O3)c12 [Example 3.003], which IC50 is on record?
Its IC50 is 2 nM.

With Cc1cc(N=S(C)(C)=O)cc2ncnc(Nc3ccc(F)cc3O[C@H](C)CNS(C)(=O)=O)c12 [Example 5.003] as the molecule, how does the IC50 read?
The IC50 was 83 nM.

Cc1cc(N=S(C)(C)=O)cc2ncnc(Nc3ccc(F)cc3O[C@H](C)C(=O)NC3CCOCC3)c12 [Example 4.019] was tested. Which IC50 did it give?
The IC50 was 6 nM.

Cc1cc(N=S(C)(C)=O)cc2ncnc(Nc3ccc(F)cc3O[C@H](C)C(=O)NCC3CCCO3)c12 (stereo partly drawn) [Example 4.011] was tested. Which IC50 did it give?
The IC50 was 24 nM.

For Cc1cc([C@@H](C)Oc2cc(F)ccc2Nc2ncnc3cc(N=S4(=O)CCCC4)cc(C)c23)on1 [Example 2.012], which IC50 is on record?
Its IC50 is 28 nM.

For COCC(=O)N1CCS(=O)(=Nc2cc(C)c3c(Nc4ccc(F)cc4O[C@H](C)c4cc(C)no4)ncnc3c2)CC1 [Example 5.007], which IC50 is on record?
Its IC50 is 4 nM.

Which IC50 does the source give for Cc1cc(N=S2(=O)CCCC2)cc2ncnc(Nc3ccc(F)cc3O[C@H](C)C(=O)N(C)CC(C)C)c12 [Example 4.052] here?
The IC50 was 3 nM.

For Cc1cc(N=S(C)(C)=O)cc2ncnc(Nc3ccc(F)cc3O[C@H](C)C(=O)NC(C)C)c12 [Example 4.060], which IC50 is on record?
The IC50 was 2 nM.

Which IC50 does the source give for O=S1(=Nc2cc(C(F)(F)F)c3c(Nc4ccc(F)cc4OC(CF)CF)ncnc3c2)CCCC1 [Example 1.004] here?
The IC50 was 3 nM.

Which IC50 does the source give for C#CCNC(=O)[C@@H](C)Oc1cc(F)ccc1Nc1ncnc2cc(N=S(C)(C)=O)cc(C)c12 [Example 4.018] here?
The IC50 was 4 nM.

For Cc1cc(N=S(C)(C)=O)cc2ncnc(Nc3ccc(F)cc3O[C@H](C)C(=O)NCCO)c12 [Example 4.029], which IC50 is on record?
Its IC50 is 3 nM.

Which IC50 does the source give for Cc1cc(N=S(C)(C)=O)cc2ncnc(Nc3ccc(F)cc3O[C@@H](C)CNS(C)(=O)=O)c12 [Example 5.001] here?
The IC50 was 1 nM.

With CC#CCNC(=O)[C@@H](C)Oc1cc(F)ccc1Nc1ncnc2cc(N=S3(=O)CCCC3)cc(C)c12 [Example 4.044] as the molecule, how does the IC50 read?
The IC50 was 3 nM.

How did the IC50 turn out when Cc1cc(N=S(C)(C)=O)cc2ncnc(Nc3ccc(F)cc3O[C@H](C)C(=O)N(C)Cc3ccccc3)c12 [Example 4.012] was run?
Its IC50 is 34 nM.

CCC(C)Oc1cc(F)ccc1Nc1ncnc2cc(N=S(C)(C)=O)cc(C)c12 (stereo not drawn) [Example 3.042] was tested. Which IC50 did it give?
Its IC50 is 15 nM.

For Cc1cc(N=S(C)(C)=O)cc2ncnc(Nc3ccc(F)cc3OC[C@H]3CCC(=O)N3)c12 [Example 3.038], which IC50 is on record?
The IC50 was 2 nM.

For CCC(C)NC(=O)[C@@H](C)Oc1cc(F)ccc1Nc1ncnc2cc(N=S3(=O)CCCC3)cc(C)c12 (stereo partly drawn) [Example 4.050], which IC50 is on record?
The IC50 was 1 nM.

How did the IC50 turn out when Cc1cc(N=S2(=O)CCCC2)cc2ncnc(Nc3ccc(F)cc3O[C@H](C)C(=O)N(C)C)c12 [Example 4.051] was run?
Its IC50 is 5 nM.

How did the IC50 turn out when C[C@@H](Oc1cc(F)ccc1Nc1ncnc2cc(N=S(C)(C)=O)cc(Cl)c12)C(F)(F)F [Example 1.003] was run?
The IC50 was 1 nM.
